Measured values from the CheMixHub drug solubility set.

Assay: xn = mol fraction of the nth substance listed, in the solute-free solvent

CN1CCC(N(Cc2cccs2)c2ccccc2)CC1 + CN(C)C=O + O
solubility (g/100 g solution)
Conditions	278.15 K	283.15 K	288.15 K	293.15 K	298.15 K	303.15 K	308.15 K	313.15 K	318.15 K	323.15 K
x2 = 0.02666	0.234	0.248	0.263	0.283	0.308	0.336	0.367	0.396	0.432	0.473
x2 = 0.05806	0.678	0.715	0.75	0.8	0.862	0.931	1.01	1.08	1.16	1.26
x2 = 0.09556	1.25	1.32	1.38	1.47	1.58	1.7	1.83	1.95	2.11	2.27
x2 = 0.1412	1.74	1.84	1.95	2.07	2.23	2.4	2.59	2.76	2.98	3.21
x2 = 0.1978	2.05	2.19	2.34	2.51	2.71	2.93	3.16	3.38	3.65	3.96
x2 = 0.27	2.31	2.46	2.65	2.87	3.12	3.38	3.66	3.93	4.27	4.64
x2 = 0.3652	2.53	2.75	2.99	3.25	3.54	3.83	4.16	4.52	4.89	5.35
x2 = 0.4965	2.78	3.02	3.28	3.6	3.95	4.31	4.69	5.09	5.53	6.09
x2 = 0.6893	2.78	3.07	3.4	3.73	4.13	4.53	4.98	5.42	5.95	6.54

Cc1ccc2cc(Br)ccc2n1 + CN(C)C=O + O
solubility (g/100 g solution)
Conditions	278.15 K	283.15 K	288.15 K	293.15 K	298.15 K	303.15 K	308.15 K	313.15 K	318.15 K	323.15 K
x2 = 0.02666	0.101	0.115	0.132	0.15	0.17	0.192	0.22	0.251	0.284	0.323
x2 = 0.05806	0.422	0.471	0.529	0.591	0.66	0.737	0.832	0.936	1.05	1.18
x2 = 0.09556	0.867	0.964	1.07	1.19	1.32	1.47	1.66	1.86	2.08	2.34
x2 = 0.1412	1.17	1.3	1.45	1.61	1.79	2	2.27	2.55	2.86	3.23
x2 = 0.1978	1.23	1.39	1.57	1.77	1.98	2.23	2.52	2.87	3.25	3.69
x2 = 0.27	1.27	1.43	1.63	1.85	2.11	2.39	2.74	3.13	3.57	4.1
x2 = 0.3652	1.38	1.58	1.8	2.04	2.31	2.62	2.99	3.45	3.97	4.61
x2 = 0.4965	1.52	1.77	2.05	2.31	2.62	3.01	3.5	4.08	4.7	5.46
x2 = 0.6893	1.67	1.91	2.2	2.61	2.99	3.44	3.98	4.63	5.36	6.25

O=C1CCC(C(=O)N2CSCC2C(=O)O)N1 (centres undefined) + CO + CC(C)=O
solubility (g/100 g solution)
Conditions	278.15 K	283.15 K	288.15 K	293.15 K	298.15 K	303.15 K	308.15 K	313.15 K	318.15 K	323.15 K
x2 = 0.1676	0.03	0.0418	0.06	0.08	0.115	0.159	0.227	0.34	0.497	0.708
x2 = 0.3118	0.045	0.0699	0.101	0.147	0.241	0.346	0.532	0.773	1.12	1.54
x2 = 0.4372	0.0669	0.0956	0.145	0.224	0.317	0.432	0.62	–	1.24	1.72
x2 = 0.5471	0.74	0.834	0.94	1.08	1.19	1.33	1.48	1.67	1.88	2.12
x2 = 0.6444	0.813	0.929	1.04	1.2	1.37	1.58	1.81	2.07	2.37	2.73
x2 = 0.7311	0.964	1.09	1.21	1.38	1.56	1.76	1.99	2.24	2.54	2.94
x2 = 0.8087	1.07	1.14	1.29	1.48	1.69	1.92	2.19	2.49	2.82	3.21
x2 = 0.8788	1.02	1.15	1.28	1.48	1.69	1.92	2.18	2.49	2.81	3.18
x2 = 0.9422	0.998	1.13	1.25	1.42	1.64	1.87	2.14	2.43	2.77	3.13

O=C1CCC(C(=O)N2CSCC2C(=O)O)N1 (centres undefined) + CO + CCCCOC(C)=O
solubility (g/100 g solution)
Conditions	278.15 K	283.15 K	288.15 K	293.15 K	298.15 K	303.15 K	308.15 K	313.15 K	318.15 K	323.15 K
x2 = 0.2871	0.0109	0.0159	0.0239	0.0358	0.0528	0.0759	0.105	0.152	0.213	0.292
x2 = 0.4754	0.017	0.025	0.0349	0.0468	0.0628	0.0977	0.147	0.219	0.325	0.472
x2 = 0.6084	0.0271	0.0398	0.0597	0.0838	0.122	0.155	0.227	0.342	0.501	0.724
x2 = 0.7073	0.0401	0.065	0.104	0.162	0.249	0.378	0.564	0.832	1.2	1.68
x2 = 0.7838	0.0447	0.0729	0.117	0.184	0.287	0.432	0.65	0.964	1.4	1.95
x2 = 0.8446	0.0601	0.0995	0.148	0.234	0.363	0.542	0.949	1.23	1.59	2.33
x2 = 0.8943	0.635	0.752	0.898	0.997	1.19	1.36	1.59	1.88	2.15	2.57
x2 = 0.9355	0.674	0.824	0.969	1.11	1.26	1.5	1.8	2.04	2.4	2.85
x2 = 0.9703	0.793	0.937	1.12	1.28	1.52	1.75	2.06	2.36	2.82	3.31
